The structures appear in SMILES notation.

The term IC50 denotes the midpoint of a concentration-inhibition curve.

The target of the first experiment is prostaglandin E2 receptor. Put plainly: inhibition of [^3 H]-PGE2 receptor binding in rat uterus membrane fraction. As to conditions: Table I; 5 nM [^3 H]-PGE2, rat uterus crude membrane fraction, pH 6.0, 1 hour at room temperature; read-out: IC50, inhibitory effects of PGE2 receptor binding in rat. The method, then: (i) The measurement of the inhibition of [^3 H]-PGE2 receptor binding
The standard assay mixture contained 5 nM [^3 H]-PGE2 (50 μl), test compounds (50 μl) and crude membrane fraction obtained from rat uterus (1.2 mg protein/ml, 100 μl) in a final volume of 200 μl (10 mM potassium phosphate pH 6.0, 0.1M NaCl (buffer A)). After incubation for 1 hour at room temperature, the reaction was stopped by the addition of 3 ml of ice-cold buffer A, after which the mixture was rapidly filtered through a Whatman GF/B glass filter. The radioactivity associated with the filter was measured in ACS II (Amarsham) by liquid scintillation counting. Percent inhibition of specific [^3 H]-PGE2 binding or IC50 value, the concentration required to compete with ^3 H-PGE2 receptor binding by 50% were calculated.
On to `O=C(O)CCC/C=C\C1CCCC1CNS(=O)(=O)c1ccc(Br)cc1` (centres unmarked), for which the IC50 worked out at 1800 nM. Same read-out and setting: for `Cc1ccc(S(=O)(=O)NCC2CCCC2/C=C\CCCC(=O)O)cc1` (centres unmarked) the value was 8000 nM; for `Cc1ccc(S(=O)(=O)NC2C3CCC(C3)C2C/C=C\CCCC(=O)O)cc1` (racemic) [5 (b), a mixture of 7-[(1R,2S,3S, 4S)-3-tosylaminobicyclo[2.2.1]heptan-2-yl]-5Z-heptenoic acid and an isomer of (1S, 2S,3S,4R)], 3400 nM; for `Cc1ccc(S(=O)(=O)N[C@H]2C3CCC(CC3)[C@@H]2C/C=C\CCCC(=O)O)cc1` (relative stereo) [5 (a), 7-[(2S*,3S*)-3-tosylaminobicyclo[2.2.2]octan-2-yl]-5Z-heptenoic acid], 3600 nM.

Regarding `Cc1ccc(S(=O)(=O)N[C@H]2[C@H]3CC[C@H](C3)[C@@H]2C/C=C\CCCC(=O)O)cc1` (relative stereo) [5 (c), 7-[(1R*,2S*,3S*,4S*)-3-tosylaminobicyclo[2.2.1]heptan-2-yl]-5Z-heptenoic acid], the IC50 was 5700 nM.

In the case of `Cc1ccc(S(=O)(=O)N[C@H]2CCC[C@@H]2C/C=C\CCCC(=O)O)cc1` (relative stereo) [5 (g), 7-[(1R*,2S*)-2-tosylaminocyclopentyl-5Z-heptenoic acid], the IC50 worked out at 3500 nM. With `O=C(O)CCC/C=C\C[C@H]1CCC[C@@H]1NS(=O)(=O)c1ccc(Br)cc1` (relative stereo) [5 (h), 7-[(1R*,2S*)-2-(4-bromophenylsulfonylamino)cyclopentyl]-5Z-heptenoic acid], the IC50 was 200 nM. Same read-out and setting: the figure for `O=C(O)CCC/C=C\[C@@H]1CCC[C@@H](NS(=O)(=O)c2ccc(Br)cc2)C1` (relative stereo) [U.S. Pat. No. 5168101 1 (l)] is 2400 nM; for `O=C(O)CCC/C=C\[C@@H]1CCC[C@H](NS(=O)(=O)c2ccc(Br)cc2)C1` (relative stereo) [U.S. Pat. No. 5168101 1 (m)] it is 500 nM; for `CC1(C)[C@H]2C[C@H](NS(=O)(=O)c3ccccc3)[C@@H](C/C=C\CCCC(=O)O)[C@@H]1C2` [3 (a), 7-[(1S,2S,3S,5R)-3-phenylsulfonylamino-6,6-dimethylbicyclo[3.1.1]heptan-2-yl]-5Z-heptenoic] it is 7600 nM. Regarding `CCc1ccc(S(=O)(=O)N[C@H]2C[C@H]3C[C@@H]([C@@H]2C/C=C\CCCC(=O)O)C3(C)C)cc1` [3 (b), 7-[(1S,2S,3S,5R)-3-(4-ethylphenyl)sulfonylamino-6,6-dimethylbicyclo[3.1.1]heptan-2-yl]-5Z-heptenoic], the IC50 was 570 nM.

Regarding `CC(C)(C)c1ccc(S(=O)(=O)N[C@H]2C[C@H]3C[C@@H]([C@@H]2C/C=C\CCCC(=O)O)C3(C)C)cc1` [3 (c), 7-[(1S,2S,3S,5R)-3-(4-tert-butylphenyl)sulfonylamino-6,6-dimethylbicyclo[3.1.1]heptan-2-yl]-5Z-heptenoic acid], the IC50 was found to be 6300 nM. Same read-out and setting: the figure for `COc1ccc(S(=O)(=O)N[C@H]2C[C@H]3C[C@@H]([C@@H]2C/C=C\CCCC(=O)O)C3(C)C)cc1` [3 (d), 7-[(1S,2S,3S,5R)-3-(4-methoxyphenyl)sulfonylamino-6,6-dimethylbicyclo[3.1.1]heptan-2-yl]-5Z-heptenoic acid] is 820 nM; for `CC1(C)[C@H]2C[C@H](NS(=O)(=O)c3ccc(F)cc3)[C@@H](C/C=C\CCCC(=O)O)[C@@H]1C2` [3 (e), 7-[(1S,2S,3S,5R)-3-(4-fluorophenyl)sulfonylamino-6,6-imethylbicyclo[3.1.1]heptan-2-yl]-5Z-heptenoic] it is 2600 nM. The same measure, in the same setting: the figure for `CC1(C)[C@H]2C[C@H](NS(=O)(=O)c3ccc(Cl)cc3)[C@@H](C/C=C\CCCC(=O)O)[C@@H]1C2` [3 (f), 7-[(1S,2S,3S,5R)-3-(4-chlorophenyl)sulfonylamino-6,6-imethylbicyclo[3.1.1]heptan-2-yl]-5Z-heptenoic] is 750 nM.

`CC1(C)[C@H]2C[C@H](NS(=O)(=O)c3ccc(I)cc3)[C@@H](C/C=C\CCCC(=O)O)[C@@H]1C2` [3 (g), 7-[(1S,2S,3S,5R)-3-(4-iodophenyl)sulfonylamino-6,6-dimethylbicyclo[3.1.1]heptan-2-yl]-5Z-heptenoic]: the IC50 came to 54 nM. The same measure, in the same setting: the figure for `CC1(C)[C@H]2C[C@H](NS(=O)(=O)c3ccc([N+](=O)[O-])cc3)[C@@H](C/C=C\CCCC(=O)O)[C@@H]1C2` [3 (h), 7-[(1S,2S,3S,5R)-3-(4-nitrophenyl)sulfonylamino-6,6-dimethylbicyclo[3.1.1]heptan-2-yl]-5Z-heptenoic] is 210 nM; for `CC1(C)[C@H]2C[C@H](NS(=O)(=O)c3ccc4ccccc4c3)[C@@H](C/C=C\CCCC(=O)O)[C@@H]1C2` [3 (i), 7-[(1S,2S,3S,5R)-3-(2-naphtyl)sulfonylamino-6,6-dimethylbicyclo[3.1.1]heptan-2-yl]-5Z-heptenoic] it is 90 nM.

Take `CCCCS(=O)(=O)N[C@H]1C[C@H]2C[C@@H]([C@@H]1C/C=C\CCCC(=O)O)C2(C)C` [3 (j), 7-[(1S,2S,3S,5R)-3-butylsulfonylamino-6,6-dimethylbicyclo[3.1.1]heptan-2-yl]-5Z-heptenoic acid]: the half-inhibitory concentration (IC50) worked out at 5000 nM. The same measure, in the same setting: the figure for `CCCCCCS(=O)(=O)N[C@H]1C[C@H]2C[C@@H]([C@@H]1C/C=C\CCCC(=O)O)C2(C)C` [3 (k), 7-[(1S,2S,3S,5R)-3-hexylsulfonylamino-6,6-dimethylbicyclo[3.1.1]heptan-2-yl]-5Z-heptenoic acid] is 25 nM; for `CCCCCCCCS(=O)(=O)N[C@H]1C[C@H]2C[C@@H]([C@@H]1C/C=C\CCCC(=O)O)C2(C)C` [3 (l), 7-[(1S,2S,3S,5R)-3-octylsulfonylamino-6,6-dimethylbicyclo[3.1.1]heptan-2-yl]-5Z-heptenoic acid] it is 360 nM; for `CC1(C)[C@H]2C[C@H](NS(=O)(=O)CCc3ccccc3)[C@@H](C/C=C\CCCC(=O)O)[C@@H]1C2` [3 (m), 7-[(1S,2S,3S,5R)-3-(2-phenylethyl)sulfonylamino-6,6-dimethylbicyclo[3.1.1]heptan-2-yl]-5Z-heptenoic acid] it is 5.4 nM. As to `CC1(C)[C@H]2C[C@H](NS(=O)(=O)CCC3CCCCC3)[C@@H](C/C=C\CCCC(=O)O)[C@@H]1C2` [3 (n), 7-[(1S,2S,3S,5R)-3-(2-cyclohexylethyl)sulfonylamino-6,6-dimethylbicyclo[3.1.1]heptan-2-yl]-5Z-heptenoic acid], the IC50 was found to be 120 nM. For the compound `Cc1ccc(S(=O)(=O)N[C@H]2C3CCC(CC3)[C@@H]2C/C=C\CCCC(=O)O)cc1` [5 (d), 7-[(2S,3S)-3-tosylaminobicyclo[2.2.2]octan-2-yl]-5Z-heptenoic acid], the half-maximal inhibitory concentration (IC50) is 2100 nM. On the same count and under the same terms, the figure for `O=C(O)CCC/C=C\CC1CCCCC1NS(=O)(=O)c1ccc(Br)cc1` (centres unmarked) [5 (e), 7-[2-(4-bromophenylsulfonylamino)cyclohexyl]-5Z-heptenoic acid] is 60 nM; for `O=C(O)CCC/C=C\CC1CCCCC1NS(=O)(=O)c1ccc(Br)cc1` (centres unmarked) [5 (f), 7-[2-(4-bromophenylsulfonylamino)cyclohexyl]-5Z-heptenoic acid] it is 5000 nM. On to `O=C(O)CCCC=CC1C2CCC(C2)C1CNS(=O)(=O)c1ccc(Br)cc1` [5 (i), 6-[(1S,2S,3S,4R)-3-(4-bromophenylsulfonylaminomethyl)bicyclo[2.2.1]heptan-2-yl]-5Z-hexenoic acid], for which the IC50 was 6500 nM. The same measure, in the same setting: for `CC1(C)[C@H]2C[C@H](NS(=O)(=O)c3ccc(Br)cc3)[C@@H](C/C=C\CCCC(=O)O)[C@@H]1C2` [Example 2, 7-[(1S,2S,3S,5R)-3-(4-bromophenyl)sulfonylamino-6,6-dimethylbicyclo [3.1.1]heptan-2-yl]-5Z-heptenoic acid] the value was 440 nM.

Staying with this experiment, now noted: Table II; 5 nM [^3 H]-PGE2, rat uterus crude membrane fraction, pH 6.0, 1 hour at room temperature; read-out: IC50, inhibitory effects of PGE2 receptor binding in rat.
`O=C(O)CCC/C=C\C[C@H]1CCCC[C@@H]1NS(=O)(=O)/C=C/c1ccccc1` (relative stereo) [6 (19), 7-[(1R*, 2S*)-2-(2-phenylvinylsulfonylamino)cyclohexyl]-5Z-heptenoic]: the IC50 stood at 230 nM. For the compound `O=C(O)CCC/C=C\[C@@H]1CCC[C@@H](NS(=O)(=O)/C=C/c2ccccc2)C1` (relative stereo) [6 (21), 6-[(1R*, 3R*)-3-(2-phenylvinylsulfonylamino)cyclohexyl]-5Z-hexenoic], the IC50 stood at 600 nM. On the same count and under the same terms, for `CC1(C)[C@H]2C[C@H](NS(=O)(=O)/C=C/c3ccc(F)cc3)[C@@H](C/C=C\CCCC(=O)O)[C@@H]1C2` [6 (2), 7-[(1S, 2S, 3S, 5R)-3-[2-(4-fluorophenyl)vinylsulfonylamino]-6,6-dimethylbicyclo[3.1.1]heptan-2-yl]-5Z-heptenoic acid] the value was 3.6 nM; for `CCCC/C=C/S(=O)(=O)N[C@H]1C[C@H]2C[C@@H]([C@@H]1C/C=C\CCCC(=O)O)C2(C)C` [6 (14)], 800 nM. On the same count and under the same terms, for `O=C(O)CCC/C=C\[C@@H]1[C@H]2CC[C@H](C2)[C@H]1CNS(=O)(=O)/C=C/c1ccccc1` [6 (18), 6-[(1S, 2S, 3R, 4R)-3-(2-phenylvinylsulfonylaminomethyl)bicyclo[2.2.1]heptan-2-yl]-5Z-hexenoic acid] the value was 17 nM; for `O=C(O)CCC/C=C\[C@H]1CC[C@@H](NS(=O)(=O)/C=C/c2ccccc2)C1` [6 (22), 6-[(1S, 3R)-3-(2-phenylvinylsulfonyl-amino)cyclopentyl]-5Z-hexenoic], 1800 nM; for `CC1(C)[C@H]2C[C@H](NS(=O)(=O)/C=C/c3ccccc3)[C@@H](C/C=C/CCCC(=O)O)[C@@H]1C2` [6 (26), 7-[(1S, 2S, 3S, 5R)-3-(2-phenylvinylsulfonylamino)-6,6-dimethylbicyclo [3.1.1]heptan-2-yl]-5E-heptenoic acid], 38 nM.

The values are drawn from patent US5663417A, “Carbocyclic sulfonamides” (Ono Pharmaceutical Co., Ltd., priority 1993, dated 1997).
